Test results: patent US20240308976A1, “COMPOUNDS THAT MEDIATE PROTEIN DEGRADATION AND USES THEREOF” (Monte Rosa Therapeutics, Inc., priority 2021, published 2024)
pIC50: −log10 of the molar value.

Assays:
CRBN-DDB1 = CRBN-DDB1 (Homo sapiens, UniProt Q96SW2); experiment: Compound binding to CRBN by HTRF assay; conditions: CRBN-DDB1 2.5 nM, Cy5-Thalidomide 100 nM, 30 min at ambient temperature; read-out: HTRF Class (Cereblon binding, HTRF IC50)
Description: Example 146: Compound Binding to CRBN by HTRF Assay
Compound activity was monitored in a Homogenous Time-Resolved Fluorescence (HTRF) assay using 1-[5-({2-[2-(2-{[2-(2,6-dioxopiperidin-3-yl)-1,3-dioxo-2,3-dihydro-1H-isoindol-4-yl]oxy}acetamido)ethoxy]ethyl}carbamoyl)pentyl]-3,3-dimethyl-2-[(1E,3E)-5-[(2E)-1,3,3-trimethyl-5-sulfo-2,3-dihydro-1H-indol-2-ylidene]penta-1,3-dien-1-yl]-3H-indol-1-ium-5-sulfonate as a fluorescent probe. Biochemical assays were conducted in Greiner white 384 well HiBase plates (Cat. No 784075-25) in 10 μL total volume. A one pot detection solution of CRBN-DDB1 (2.5 nM), Anti-His Terbium Cryptate Gold (1X, PerkinElmer Cat. #: 61HI2TLB), and Cy5-Thalidomide (100 nM, Tenova Cat.: T52461) was prepared in 20 mM HEPES, 20 mM NaCl, 0.2 mM TCEP, 0.2 mM EDTA, and 0.005% Tween20 was dispensed to each assay plate. Compounds were stored in dry, ambient temperatures at 10 mM. A 10-point, 1:3 dilution series was prepared from 10 mM stock concentrations in Echo-compatible LDV plates. 10 nL of each compound dilution series was dispensed into assays wells using an Echo 650 (Labcyte inc. USA). 10 nL of 10 mM Lenalidomide was transferred into the active-control wells for the assay and 10 nL of DMSO was transferred into the neutral-control wells. The assay was then allowed to incubate for 30 min at ambient temperature after transferring compound. Plate measurements were taken on a Pherastar FSX (BMG Labtech, Germany) using the HTRF Red filter (Ex. 337 nm, em1: 620 nm, em2: 665 nm) (Flashes: 50, Integration time: 60-400 us, Z-height: 10 mm, Ratio-multiplier: 10,000). The HTRF signal was then subsequently normalized to the neutral and active controls. Analysis and IC50 values were derived using KNIME analytics (KNIME Zurich) transformation and fitting within Collaborative Drug Discovery (Collaborative Drug Discovery USA). Ki was derived from the geometric mean of the IC50 values using the Cheng-Prustoff transformation.
(§1) In Table 2, each compound is assigned a class (HTRF class) indicating the ability for Cereblon binding by means of their HTRF IC50 values according to […]: A, B, C or D. According to the code, A represents an IC50 value of ≤100 nM, B represents an IC50 value>100 nM and ≤1000 nM, C represents an IC50 value>1000 nM. IF Class assigns each compound a code indicating the ability for GSPT1 degradation: A, B or C. According to the code, A represents a DC50 value of ≤30 nM, B represents a DC50 value>30 nM and ≤300 nM and C represents a DC50 value of >300 nM.

GSPT1 = molecular target: T1, GSPT1 (Homo sapiens, UniProt P15170+Q96SW2); experiment: Immunofluorescence assay for activity to degrade GSPT1 in CAL-51 cells; type: cell-based; conditions: 6 h treatment, read-out: IF Class (GSPT1 degradation, DC50)
T1 construct: CAL-51 cells were purchased from DSMZ (cat. Number ACC302); host or cells: CAL-51
T1 sequence (P15170 whole entry): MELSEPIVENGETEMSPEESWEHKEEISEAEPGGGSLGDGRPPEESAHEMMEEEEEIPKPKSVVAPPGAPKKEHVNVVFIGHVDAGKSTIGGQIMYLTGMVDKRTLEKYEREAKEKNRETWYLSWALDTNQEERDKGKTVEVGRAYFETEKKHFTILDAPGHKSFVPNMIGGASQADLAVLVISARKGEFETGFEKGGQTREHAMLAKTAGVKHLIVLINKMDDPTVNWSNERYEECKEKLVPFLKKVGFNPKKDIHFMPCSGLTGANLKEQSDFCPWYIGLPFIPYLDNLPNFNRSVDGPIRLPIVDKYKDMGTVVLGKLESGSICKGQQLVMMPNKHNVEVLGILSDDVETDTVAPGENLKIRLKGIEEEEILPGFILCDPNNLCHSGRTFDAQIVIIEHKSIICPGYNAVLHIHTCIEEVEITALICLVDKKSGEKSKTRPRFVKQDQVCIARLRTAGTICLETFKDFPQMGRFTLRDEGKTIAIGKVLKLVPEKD
T1 sequence (Q96SW2 whole entry): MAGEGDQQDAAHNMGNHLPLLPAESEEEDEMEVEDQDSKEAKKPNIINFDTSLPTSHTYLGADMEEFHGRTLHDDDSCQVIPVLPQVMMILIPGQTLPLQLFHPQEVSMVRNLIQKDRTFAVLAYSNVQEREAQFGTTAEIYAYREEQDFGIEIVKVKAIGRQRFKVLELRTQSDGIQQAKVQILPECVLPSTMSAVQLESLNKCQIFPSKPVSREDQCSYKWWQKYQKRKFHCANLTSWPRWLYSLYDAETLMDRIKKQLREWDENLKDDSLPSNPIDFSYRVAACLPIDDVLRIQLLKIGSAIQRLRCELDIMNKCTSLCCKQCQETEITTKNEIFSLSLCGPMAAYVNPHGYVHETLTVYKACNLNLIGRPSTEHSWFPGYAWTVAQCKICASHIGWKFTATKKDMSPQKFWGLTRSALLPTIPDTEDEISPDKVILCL
T1 sequence (Q16531 2-1140 partner limits assumed): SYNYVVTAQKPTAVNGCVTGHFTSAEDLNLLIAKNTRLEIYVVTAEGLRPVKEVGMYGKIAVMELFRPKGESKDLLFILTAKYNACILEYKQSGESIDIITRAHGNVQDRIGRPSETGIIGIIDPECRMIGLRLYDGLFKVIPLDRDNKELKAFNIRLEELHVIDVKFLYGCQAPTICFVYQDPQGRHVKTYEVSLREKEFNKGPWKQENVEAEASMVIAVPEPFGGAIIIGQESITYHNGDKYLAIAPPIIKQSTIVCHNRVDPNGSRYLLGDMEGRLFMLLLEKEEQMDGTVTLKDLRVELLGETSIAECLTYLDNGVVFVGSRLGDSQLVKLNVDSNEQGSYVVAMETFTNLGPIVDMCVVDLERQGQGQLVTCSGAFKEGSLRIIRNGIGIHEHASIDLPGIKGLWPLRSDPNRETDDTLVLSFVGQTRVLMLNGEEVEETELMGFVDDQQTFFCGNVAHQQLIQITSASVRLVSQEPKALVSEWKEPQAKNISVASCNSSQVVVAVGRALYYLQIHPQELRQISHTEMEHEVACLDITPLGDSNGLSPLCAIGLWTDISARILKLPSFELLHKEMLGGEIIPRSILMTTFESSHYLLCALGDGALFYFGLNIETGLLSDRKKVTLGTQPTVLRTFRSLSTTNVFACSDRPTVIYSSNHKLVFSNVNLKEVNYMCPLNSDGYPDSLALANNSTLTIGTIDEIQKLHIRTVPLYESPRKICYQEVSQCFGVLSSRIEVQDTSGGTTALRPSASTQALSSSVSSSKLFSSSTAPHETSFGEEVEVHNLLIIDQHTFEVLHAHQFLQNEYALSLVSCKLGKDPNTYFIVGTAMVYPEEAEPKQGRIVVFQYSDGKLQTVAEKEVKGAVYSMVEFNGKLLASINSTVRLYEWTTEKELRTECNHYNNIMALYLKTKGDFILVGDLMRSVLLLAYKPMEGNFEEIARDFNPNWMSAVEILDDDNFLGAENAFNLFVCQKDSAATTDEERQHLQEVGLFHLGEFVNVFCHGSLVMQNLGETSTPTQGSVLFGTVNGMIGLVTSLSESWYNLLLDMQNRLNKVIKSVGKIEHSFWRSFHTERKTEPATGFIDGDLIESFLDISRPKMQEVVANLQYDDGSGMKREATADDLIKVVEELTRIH
Description: Example 147: Compound Activity by Immunofluorescence Assay
The representative compounds were tested in an immunofluorescence assay for their activity to degrade GSPT1. CAL-51 cells were purchased from DSMZ (cat. Number ACC302), sub-cultured in 90% Dulbecco's MEM (4.5 g/L glucose, Gibco 11965)+10% heat inactivated FBS (BioConcept, 2-01F136I) and incubated at 37° C., 5% CO2. For the assay imaging microtiter plate Cell Carrier 96 Ultra (Perkin Elmer 6055302) were pre-coated with Fibronectin (Sigma F085, 30 μL at 0.2 μg/mL) in PBS (100 μL, Gibco 14190) for 45 min at room temperature, rinsed with PBS and CAL-51 cells (30K cells/well) were plated and let to adhere overnight. Cells were treated with compounds typically using a serial dilution ranging from 30 μM to 0.1 nM for 6 h. Compounds were stored at 10 mM DMSO stocks. Vehicle (DMSO), positive (CC-885, 10 μM) and rescue controls (positive control plus 0.2 μM bortezomib) were also included at this stage. Cells were subsequently rinsed with PBS and fixed in 10% Formalin solution (50 μL, Sigma HT5011)) for 20 mins at room temperature. Following three consecutive PBS washes (100 μL), cells were permeabilized in 0.1% Triton X-100 in PBS (Sigma 93443, 50 μL) for 15 min. at room temperature. Following three further PBS washes, 50 μL blocking buffer (1% BSA, Sigma A4503, in PBS) was added for 45 min for signal-to noise reduction. Primary antibody (human GSPT1, Sigma HPA052488) was diluted in blocking buffer (dil.1/300, 35 μL/well) and incubated with the cells overnight at 4° C. After three PBS washes, Alexa-fluor 488 coupled secondary antibodies (Invitrogen, A32731, dil. 1/1000), Alexa-fluor 647-Phalloidin (Invitrogen, A22287, dil. 1/200) and DAPI (Thermo, #62248, dil. 1/1000) were diluted in blocking buffer and incubated with the samples for 2 h at room temperature. After three final PBS washes, samples were conserved in 100 μL PBS in the dark, until measurement. Image acquisition was performed on the Operetta High-Content Imager (Perkin-Elmer). Fluorescence intensity of […] (GSPT1), Alexa-Fluor 647 (Actin) and DAPI (Nucleus) were measured. For the determination of GSPT1 DC50 values, a custom algorithm implemented in the PerkinElmer image analysis software Harmony-Acapella® was developed. After user-defined setting of adjustment parameters, the analysis was run identically without human intervention for all image fields. DAPI staining of the nuclei was used to determine the location of cells using standard nuclei detection modules. Segmentation artifacts were removed by threshold-based filters for area, roundness and intensity. The outline of the cells was determined analogously from the sum of the normalized, smoothed DAPI and Actin channel, starting from each nucleus. The Alexa-Fluor 488 (GSPT1) signal intensity in each cell was finally measured, in order to obtain a Mean intensity per cell. GSPT1 degradation (DC50) was calculated after normalization to controls and data import in CDD vault Database, using non-linear regression.
as §1

Chain of CRBN-DDB1 (Q96SW2 whole entry): as the sequence (Q96SW2 whole entry) above
Chain of CRBN-DDB1 (Q16531 whole entry partner): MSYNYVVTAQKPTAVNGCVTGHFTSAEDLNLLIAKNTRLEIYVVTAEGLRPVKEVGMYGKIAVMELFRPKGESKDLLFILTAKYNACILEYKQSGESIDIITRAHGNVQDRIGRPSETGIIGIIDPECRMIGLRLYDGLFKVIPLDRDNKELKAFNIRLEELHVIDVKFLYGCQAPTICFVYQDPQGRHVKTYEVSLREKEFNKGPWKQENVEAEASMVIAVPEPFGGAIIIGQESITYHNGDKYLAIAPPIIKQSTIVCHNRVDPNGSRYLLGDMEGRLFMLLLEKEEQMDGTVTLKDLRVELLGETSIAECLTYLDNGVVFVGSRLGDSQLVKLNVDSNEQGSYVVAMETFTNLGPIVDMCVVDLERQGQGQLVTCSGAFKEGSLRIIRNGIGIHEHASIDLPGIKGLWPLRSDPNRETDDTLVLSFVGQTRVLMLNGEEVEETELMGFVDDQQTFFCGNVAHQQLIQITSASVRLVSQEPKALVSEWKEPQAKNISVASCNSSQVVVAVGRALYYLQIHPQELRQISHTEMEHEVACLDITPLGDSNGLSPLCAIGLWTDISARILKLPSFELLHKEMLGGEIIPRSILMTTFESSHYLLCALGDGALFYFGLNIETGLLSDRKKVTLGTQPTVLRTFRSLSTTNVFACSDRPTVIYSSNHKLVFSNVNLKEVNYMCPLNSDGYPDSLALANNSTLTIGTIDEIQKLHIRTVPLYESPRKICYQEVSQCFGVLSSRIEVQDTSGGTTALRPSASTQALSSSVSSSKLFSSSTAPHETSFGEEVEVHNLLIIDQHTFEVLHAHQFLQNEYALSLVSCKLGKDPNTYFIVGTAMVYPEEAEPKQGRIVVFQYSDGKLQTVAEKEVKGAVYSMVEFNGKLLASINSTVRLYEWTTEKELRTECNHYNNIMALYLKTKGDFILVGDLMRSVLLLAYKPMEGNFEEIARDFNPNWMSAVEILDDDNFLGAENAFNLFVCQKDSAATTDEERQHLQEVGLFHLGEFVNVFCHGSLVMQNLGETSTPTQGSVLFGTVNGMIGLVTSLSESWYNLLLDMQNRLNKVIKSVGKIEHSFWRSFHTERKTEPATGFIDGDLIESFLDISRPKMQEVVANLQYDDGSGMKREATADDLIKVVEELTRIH

| Structure (SMILES) | pIC50 (CRBN-DDB1) | DC50 (GSPT1) [µM] |
| --- | --- | --- |
| Cc1cc(C)cc(NC(=O)OC2CN(c3cc(F)c(C4CCC(=O)NC4=O)c(F)c3)C2)c1 (stereo not drawn) [Compound 4, 1-(4-(2,6-dioxopiperidin-3-yl)-3,5-difluorophenyl)azetidin-3-yl (3,5-dimethyl phenyl)carbamate] | 6.00 to 7.00 | 0.03 to 0.3 |
| Cc1ccc(NC(=O)NC2CN(c3ccc(C4CCC(=O)NC4=O)c(F)c3)C2)cc1Cl (stereo not drawn) [Compound 7, 1-(3-chloro-4-methylphenyl)-3-(1-(4-(2,6-dioxopiperidin-3-yl)-3-fluorophenyl)azetidin-3-yl)urea] | 6.00 to 7.00 | 0.03 to 0.3 |
| C[C@@H]1CCCN1c1ccc(NC(=O)OC2CN(c3cc(F)c(C4CCC(=O)NC4=O)c(F)c3)C2)cn1 (stereo partly drawn) [Compound 10, 1-(4-(2,6-dioxopiperidin-3-yl)-3,5-difluorophenyl)azetidin-3-yl (6-((R)-2-methylpyrrolidin-1-yl)pyridin-3-yl)carbamate] | ≥ 7.00 | ≤ 0.03 |
| Cc1cc(C)cc(NC(=O)NC2CN(c3cc(F)c(C4CCC(=O)NC4=O)c(F)c3)C2)c1 (stereo not drawn) [Compound 11, 1-(3,5-dimethylphenyl)-3-(1-(4-(2,6-dioxopiperidin-3-yl)-3,5-difluorophenyl)azetidin-3-yl)urea] | 6.00 to 7.00 | ≤ 0.03 |
| CC(C)(C)c1ccc(NC(=O)NC2CN(c3cc(F)c(C4CCC(=O)NC4=O)c(F)c3)C2)cn1 (stereo not drawn) [Compound 12, 1-(6-(tert-butyl)pyridin-3-yl)-3-(1-(4-(2,6-dioxopiperidin-3-yl)-3,5-difluorophenyl)azetidin-3-yl)urea] | ≥ 7.00 | ≤ 0.03 |
| O=C1CCC(c2c(F)cc(N3CC(NC(=O)Nc4cccc(OC(F)F)c4)C3)cc2F)C(=O)N1 (stereo not drawn) [Compound 15, 1-(3-(difluoromethoxy)phenyl)-3-(1-(4-(2,6-dioxopiperidin-3-yl)-3,5-difluorophenyl)azetidin-3-yl)urea] | ≥ 7.00 | 0.03 to 0.3 |
| O=C1CCC(c2c(F)cc(N3CC(NC(=O)Nc4cc(F)cc(Cl)c4)C3)cc2F)C(=O)N1 (stereo not drawn) [Compound 16, 1-(3-chloro-5-fluorophenyl)-3-(1-(4-(2,6-dioxopiperidin-3-yl)-3,5-difluorophenyl)azetidin-3-yl)urea] | 6.00 to 7.00 | 0.03 to 0.3 |
| O=C1CCC(c2c(F)cc(N3CC(NC(=O)Nc4cccc(OC5CC5)c4)C3)cc2F)C(=O)N1 (stereo not drawn) [Compound 17, 1-(3-cyclopropoxyphenyl)-3-(1-(4-(2,6-dioxopiperidin-3-yl)-3,5-difluorophenyl)azetidin-3-yl)urea] | 6.00 to 7.00 | 0.03 to 0.3 |
| Cc1ccc(NC(=O)NC2CN(c3cc(F)c(C4CCC(=O)NC4=O)c(F)c3)C2)cc1OC(F)F (stereo not drawn) [Compound 21, 1-(3-(difluoromethoxy)-4-methylphenyl)-3-(1-(4-(2,6-dioxopiperidin-3-yl)-3,5-difluorophenyl)azetidin-3-yl)urea] | 6.00 to 7.00 | ≤ 0.03 |
| O=C1CCC(c2c(F)cc(N3CC(NC(=O)Nc4cc(F)cc(OC(F)F)c4)C3)cc2F)C(=O)N1 (stereo not drawn) [Compound 22, 1-(3-(difluoromethoxy)-5-fluorophenyl)-3-(1-(4-(2,6-dioxopiperidin-3-yl)-3,5-difluorophenyl)azetidin-3-yl)urea] | 6.00 to 7.00 | 0.03 to 0.3 |

More lines, now with the values ahead:

| pIC50 (CRBN-DDB1) | DC50 (GSPT1) [µM] | Structure (SMILES) |
| --- | --- | --- |
| ≥ 7.00 | 0.03 to 0.3 | Cc1c(Cl)cc(NC(=O)OC2CN(c3cc(F)c(C4CCC(=O)NC4=O)c(F)c3)C2)cc1CN1CCOCC1 (stereo not drawn) [Compound 5, 1-(4-(2,6-dioxopiperidin-3-yl)-3,5-difluorophenyl) azetidin-3-yl(3-chloro-4-methyl-5-(morpholinomethyl)phenyl)carbamate] |
| 6.00 to 7.00 | 0.03 to 0.3 | Cc1ccc(NC(=O)OC2CN(c3cc(F)c(C4CCC(=O)NC4=O)c(F)c3)C2)cc1OC(F)F (stereo not drawn) [Compound 6, 1-(4-(2,6-dioxopiperidin-3-yl)-3,5-difluoropheny) azetidin-3-yl(3-(difluoromethoxy)-4-methylphenyl) carbamate] |
| 6.00 to 7.00 | ≤ 0.03 | Cc1ccc(NC(=O)OC2CN(c3ccc(C4CCC(=O)NC4=O)c(F)c3)C2)cc1Cl (stereo not drawn) [Compound 8, 1-(4-(2,6-dioxopiperidin-3-yl)-3-fluorophenyl) azetidin-3-yl(3-chloro-4-methylphenyl)carbamate] |
| ≥ 7.00 | ≤ 0.03 | Cc1c(Cl)cc(NC(=O)NC2CN(c3cc(F)c(C4CCC(=O)NC4=O)c(F)c3)C2)cc1CN1CC2CC1CO2 (stereo not drawn) [Compound 9, 1-(3-(2-oxa-5-azabicyclo[2.2.1]heptan-5-ylmethyl)-5-chloro-4-methylphenyl)-3-(1-(4-(2,6-dioxopiperidin-3-yl)-3,5-difluorophenyl)azetidin-3-yl)urea] |
| ≥ 7.00 | ≤ 0.03 | Cc1c(Cl)cc(NC(=O)NC2CN(c3cc(F)c(C4CCC(=O)NC4=O)c(F)c3)C2)cc1OCCN1CCOCC1 (stereo not drawn) [Compound 13, 1-(3-chloro-4-methyl-5-(2-morpholinoethoxy)phenyl)-3-(1-(4-(2,6-dioxopiperidin-3-yl)-3,5-difluorophenyl)azetidin-3-yl)urea] |
| 6.00 to 7.00 | ≤ 0.03 | O=C1CCC(c2c(F)cc(N3CC(OC(=O)Nc4cccc(OC(F)F)c4)C3)cc2F)C(=O)N1 (stereo not drawn) [Compound 14, 1-(4-(2,6-dioxopiperidin-3-yl)-3,5-difluorophenyl)azetidin-3-yl (3-(difluoromethoxy)phenyl)carbamate] |
| 6.00 to 7.00 | 0.03 to 0.3 | O=C1CCC(c2c(F)cc(N3CC(NC(=O)Nc4cccc(OC(F)(F)F)c4)C3)cc2F)C(=O)N1 (stereo not drawn) [Compound 18, 1-(1-(4-(2,6-dioxopiperidin-3-yl)-3,5-difluorophenyl)azetidin-3-yl)-3-(3-(trifluoromethoxy)phenyl)urea] |
| 6.00 to 7.00 | ≤ 0.03 | O=C1CCC(c2c(F)cc(N3CC(NC(=O)Nc4ccc(F)c(OC(F)F)c4)C3)cc2F)C(=O)N1 (stereo not drawn) [Compound 19, 1-(3-(difluoromethoxy)-4-fluorophenyl)-3-(1-(4-(2,6-dioxopiperidin-3-yl)-3,5-difluorophenyl)azetidin-3-yl)urea] |
